Tests used:
Caco-2 [1] = assay: cell viability relative to DMSO; higher = less toxic; settings: 72 h
Calu-3 [2] = assay: as above; settings: 72 h
Vero E6 [3] = assay: as above; settings: 72 h
HepG2 [4] = assay: as above; settings: 72 h
U2OS [5] = assay: as above; settings: 72 h
[6] = tested on: A549-ACE2 infected with SARS-CoV-2; assay: cell count relative to DMSO; higher = less toxic; settings: 24 h
A549-ACE2 [7] = assay: phospholipidosis EC50; higher = less potent phospholipidosis inducer
A549-ACE2 [8] = assay: drug-induced phospholipidosis relative to tamoxifen; higher = more phospholipidosis
Caco-2 [9] = assay: relative viability EC50 (midpoint between 100% and the lowest measured viability); higher = less toxic; settings: 72 h
HepG2 [10] = assay: as above; settings: 72 h
Caco-2 [11] = assay: drug sensitivity score (DSS) for viability; higher = more toxic; extreme values may be limits of the assay; settings: 72 h
Calu-3 [12] = assay: as above; settings: 72 h
Vero E6 [13] = assay: as above; settings: 72 h
HepG2 [14] = assay: as above; settings: 72 h
U2OS [15] = assay: as above; settings: 72 h
[16] = tested on: A549-ACE2 infected with SARS-CoV-2; assay: SARS-CoV-2 infection rate relative to DMSO; higher = more infection; settings: 24 h
[17] = tested on: A549-ACE2 infected with SARS-CoV-2; assay: morphology score (similarity to uninfected cells); higher = more like uninfected cells; settings: 24 h
Calu-3 [18] = assay: relative viability EC50 (midpoint between 100% and the lowest measured viability); higher = less toxic; settings: 72 h
Vero E6 [19] = assay: as above; settings: 72 h
U2OS [20] = assay: as above; settings: 72 h

CN1CCN(C2CCN(C(=O)Nc3cc(Oc4ccc(NC(=O)C5(C(=O)Nc6ccc(F)cc6)CC5)c(F)c4)ccn3)CC2)CC1 [golvatinib]
Settings	SARS-CoV-2 infection rate [%]	cell count [%]	cell viability [%]	morphology score	phospholipidosis EC50 [µM]
A549-ACE2 [7], 24 h	–	–	–	–	4.22
A549-ACE2 [7], 48 h	–	–	–	–	9.68
A549-ACE2 [7], 72 h	–	–	–	–	11.3
Caco-2 [1], 1 nM	–	–	102	–	–
Caco-2 [1], 10 nM	–	–	89.1	–	–
Caco-2 [1], 100 nM	–	–	95	–	–
Caco-2 [1], 1000 nM	–	–	87.9	–	–
Caco-2 [1], 10000 nM	–	–	44.2	–	–
Calu-3 [2], 1 nM	–	–	92.4	–	–
Calu-3 [2], 10 nM	–	–	105	–	–
Calu-3 [2], 100 nM	–	–	97.1	–	–
Calu-3 [2], 1000 nM	–	–	106	–	–
Calu-3 [2], 10000 nM	–	–	63.4	–	–
HepG2 [4], 1 nM	–	–	97.8	–	–
HepG2 [4], 10 nM	–	–	95.5	–	–
HepG2 [4], 100 nM	–	–	102	–	–
HepG2 [4], 1000 nM	–	–	77.6	–	–
HepG2 [4], 10000 nM	–	–	1.4	–	–
U2OS [5], 1 nM	–	–	96.7	–	–
U2OS [5], 10 nM	–	–	102	–	–
U2OS [5], 100 nM	–	–	97.6	–	–
U2OS [5], 1000 nM	–	–	104	–	–
U2OS [5], 10000 nM	–	–	61.2	–	–
Vero E6 [3], 1 nM	–	–	95.3	–	–
Vero E6 [3], 10 nM	–	–	97.5	–	–
Vero E6 [3], 100 nM	–	–	95	–	–
Vero E6 [3], 1000 nM	–	–	91.3	–	–
Vero E6 [3], 10000 nM	–	–	59.6	–	–
[6], 0.1 µM	–	94	–	–	–
[6], 0.3 µM	–	101	–	–	–
[6], 1 µM	–	103	–	–	–
[6], 3 µM	–	110	–	–	–
[16], 0.1 µM	107	–	–	–	–
[16], 0.3 µM	104	–	–	–	–
[16], 1 µM	95	–	–	–	–
[16], 3 µM	50	–	–	–	–
[17], 0.1 µM	–	–	–	-0.16	–
[17], 0.3 µM	–	–	–	-0.14	–
[17], 1 µM	–	–	–	0.12	–
[17], 3 µM	–	–	–	0.64	–

drug-induced phospholipidosis [%], A549-ACE2 [8]
Settings	0.3 µM	0.833333 µM	3.33333 µM	6.66667 µM	10 µM	30 µM
24 h	1.8	1.61	20.9	69	79.8	76.4
48 h	3.53	3.1	11.1	42.2	75.9	–
72 h	5.78	3.08	10.8	36.2	67.2	–

Settings	drug sensitivity score	relative viability EC50 [µM]
Caco-2 [9]	–	1.66
Caco-2 [11]	5	–
Calu-3 [12]	1.4	–
HepG2 [10]	–	1.63
HepG2 [14]	9	–
U2OS [15]	1.6	–
Vero E6 [13]	3.4	–

O=C(Nc1ccc(-c2ccnc(Nc3ccc(N4CCOCC4)cc3)n2)cc1)C1CCCN1 (stereo unspecified) [XL019]
Settings	SARS-CoV-2 infection rate, [16] [%]	cell count, [6] [%]	cell viability, Caco-2 [1] [%]	cell viability, Calu-3 [2] [%]	cell viability, HepG2 [4] [%]	cell viability, U2OS [5] [%]	cell viability, Vero E6 [3] [%]	morphology score, [17]
1 nM	–	–	89.4	109	95.1	97.9	102	–
10 nM	–	–	99.2	98	96.3	97.5	102	–
100 nM	–	–	98.7	107	89.9	98	98.5	–
0.3 µM	100	98	–	–	–	–	–	0.04
1000 nM	–	–	94.2	122	88.1	96.5	94.5	–
3 µM	101	99	–	–	–	–	–	-0.09
10000 nM	–	–	86.5	119	67.5	90.6	94.6	–
10 µM	86	109	–	–	–	–	–	0.26
30 µM	46	109	–	–	–	–	–	0.33

drug-induced phospholipidosis [%], A549-ACE2 [8]
Settings	0.3 µM	0.833333 µM	3.33333 µM	6.66667 µM	10 µM	30 µM
24 h	-0.79	-8.22	-5.43	0.07	5.79	96.9
48 h	3.03	-8.76	-8.92	-8.57	-5.17	83.3
72 h	5.53	-8.19	-8.71	-9.82	-6.36	–

Settings	drug sensitivity score	relative viability EC50 [µM]
Caco-2 [9]	–	> 10
Caco-2 [11]	0	–
Calu-3 [12]	0	–
Calu-3 [18]	–	> 10
HepG2 [14]	2.8	–
U2OS [15]	0	–
U2OS [20]	–	> 10
Vero E6 [13]	0	–
Vero E6 [19]	–	> 10

Source: the supplement of paper PMC13380429
